From US12030904B2 (priority 2020, dated 2024)
Like-named read-outs stand apart in the source and are kept apart here.

Assays:
MT4 cytotoxicity (CC50) = conditions: human, MT4 cells
SARS-CoV-2 = assay: microbe, parasite or virus in culture; format: cell-based; conditions: Severe acute respiratory syndrome coronavirus 2, read-out: SARS EC50
[1] = test system: Recombinant Respiratory Syncytial virus strain A2 containing the firefly luciferase reporter (RSV-Fluc); assay: microbe, parasite or virus in culture; format: cell-based; conditions: human respiratory syncytial virus, NHBE
[2] = 72 h, read-out: RSV-Fluc EC50 (NHBE), NHBE cells, three days, Table 2

SMILES	CC50 (MT4 cytotoxicity (CC50); MT4 CC50, Table 4)	EC50 (SARS-CoV-2)	EC50 ([1]; read-out: RSV EC50, Table 4)	CC50 (MT4 cytotoxicity (CC50); MT4 CC50, Table 2a)	EC50 [1, 2]	EC50 ([1]; read-out: RSV EC50, Table 2a)
CCCCCCCCCCCCCCCCOC[C@H](COP(=O)(O)OC[C@H]1O[C@@](C#N)(c2ccc3c(N)ncnn23)[C@H](O)[C@@H]1O)OCc1ccc(C#N)cc1 [Example 96, ((2R,3S,4R,5R)-5-(4-aminopyrrolo[2,1-f][1,2,4]triazin-7-yl)-5-cyano-3,4-dihydroxytetrahydrofuran-2-yl)methyl ((R)-2-((4-cyanobenzyl)oxy)-3-(hexadecyloxy)propyl) hydrogen phosphate]	0.511 µM	43 nM	23 nM			
CC(C)CCCCCCCCCCCCCCOC[C@H](COP(=O)(O)OC[C@H]1O[C@@](C#N)(c2ccc3c(N)ncnn23)[C@H](O)[C@@H]1O)OCc1ccccc1 [Example 24, ((2R,3S,4R,5R)-5-(4-aminopyrrolo[2,1-f][1,2,4]triazin-7-yl)-5-cyano-3,4-dihydroxytetrahydrofuran-2-yl)methyl ((R)-2-(benzyloxy)-3-((15-methylhexadecyl)oxy)propyl) hydrogen phosphate]		3320 nM		2.2 µM	42 nM	42 nM
CCCCCCCCCCCCCCCCCCOC[C@H](COP(=O)(O)OC[C@H]1O[C@@](C#N)(c2ccc3c(N)ncnn23)[C@H](O)[C@@H]1O)n1cnc(C#N)c1 [Example 79, ((2R,3S,4R,5R)-5-(4-aminopyrrolo[2,1-f][1,2,4]triazin-7-yl)-5-cyano-3,4-dihydroxytetrahydrofuran-2-yl)methyl ((R)-2-(4-cyano-1H-imidazol-1-yl)-3-(octadecyloxy)propyl) hydrogen phosphate]	10.1 µM	330 nM	103 nM			
CCCCCCCCCCCCCCCCOC[C@H](COP(=O)(O)OC[C@H]1O[C@@](C#N)(c2ccc3c(N)ncnn23)[C@H](O)[C@@H]1O)OCCCCCCCCCCCCCCCC [Example 61, ((2R,3S,4R,5R)-5-(4-Aminopyrrolo[2,1-f][1,2,4]triazin-7-yl)-5-cyano-3,4-dihydroxytetrahydrofuran-2-yl)methyl ((R)-2,3-bis(hexadecyloxy)propyl) hydrogen phosphate]		10000 nM		50 µM	4500 nM	4540 nM
CCCCCCCCCCCCCCCCOCCCCOP(=O)(O)OC[C@H]1O[C@@](C#N)(c2ccc3c(N)ncnn23)[C@H](O)[C@@H]1O [Example 25, ((2R,3S,4R,5R)-5-(4-aminopyrrolo[2,1-f][1,2,4]triazin-7-yl)-5-cyano-3,4-dihydroxytetrahydrofuran-2-yl)methyl (4-(hexadecyloxy)butyl) hydrogen phosphate]		7460 nM		48.9 µM	70 nM	263 nM
CCCCCCCCCCCCCCCCCCOCCCOP(=O)(O)OC[C@H]1O[C@@](C#N)(c2ccc3c(N)ncnn23)[C@H](O)[C@@H]1O [Example 59, ((2R,3S,4R,5R)-5-(4-Aminopyrrolo[2,1-f][1,2,4]triazin-7-yl)-5-cyano-3,4-dihydroxytetrahydrofuran-2-yl)methyl (3-(octadecyloxy)propyl) hydrogen phosphate]		10000 nM		19.6 µM	170 nM	171 nM
CCCCCCCCCCCCCCCCCOCCCCOP(=O)(O)OC[C@H]1O[C@@](C#N)(c2ccc3c(N)ncnn23)[C@H](O)[C@@H]1O [Example 121, [(2R,3S,4R,5R)-5-(4-Aminopyrrolo[2,1-f][1,2,4]triazin-7-yl)-5-cyano-3,4-dihydroxy-tetrahydrofuran-2-yl]methyl 4-heptadecoxybutyl hydrogen phosphate]	10.4 µM	8900 nM	262 nM			
CCCCCCCCCCCCCCCCCCOCC(COc1ccccc1)COP(=O)(O)OC[C@H]1O[C@@](C#N)(c2ccc3c(N)ncnn23)[C@H](O)[C@@H]1O (stereo partly drawn) [Example 29, ((2R,3S,4R,5R)-5-(4-aminopyrrolo[2,1-f][1,2,4]triazin-7-yl)-5-cyano-3,4-dihydroxytetrahydrofuran-2-yl)methyl (3-(octadecyloxy)-2-(phenoxymethyl)propyl) hydrogen phosphate]		3330 nM		6.16 µM	140 nM	140 nM
CCCCCCCCCCCCCCCCOC[C@H](COP(=O)(O)OC[C@H]1O[C@@](C#N)(c2ccc3c(N)ncnn23)[C@H](O)[C@@H]1O)OCc1cccc(C#N)c1 [Example 95, ((2R,3S,4R,5R)-5-(4-aminopyrrolo[2,1-f][1,2,4]triazin-7-yl)-5-cyano-3,4-dihydroxytetrahydrofuran-2-yl)methyl ((R)-2-((3-cyanobenzyl)oxy)-3-(hexadecyloxy)propyl) hydrogen phosphate]	0.252 µM	37 nM	20 nM			
CCCCCCCCCCCCCCCCCCOC[C@H](COP(=O)(O)OC[C@H]1O[C@@](C#N)(c2ccc3c(N)ncnn23)[C@H](O)[C@@H]1O)Oc1ccc(C#N)cn1 [Example 76, ((2R,3S,4R,5R)-5-(4-aminopyrrolo[2,1-f][1,2,4]triazin-7-yl)-5-cyano-3,4-dihydroxytetrahydrofuran-2-yl)methyl ((R)-2-((5-cyanopyridin-2-yl)oxy)-3-(octadecyloxy)propyl) hydrogen phosphate]	0.295 µM	48 nM	31 nM			
CCCCCCCCCCCCCCOC[C@H](COP(=O)(O)OC[C@H]1O[C@@](C#N)(c2ccc3c(N)ncnn23)[C@H](O)[C@@H]1O)OCc1ccc(C#N)cc1F [Example 101, [(2R,3S,4R,5R)-5-(4-aminopyrrolo[2,1-f][1,2,4]triazin-7-yl)-5-cyano-3,4-dihydroxy-tetrahydrofuran-2-yl]methyl [(2R)-2-[(4-cyano-2-fluoro-phenyl)methoxy]-3-tetradecoxy-propyl] hydrogen phosphate]	5.11 µM	130 nM	20 nM			
CCCCCCCCCCCCCCCCCCOC[C@H](COP(=O)(O)OC[C@H]1O[C@@](C#N)(c2ccc3c(N)ncnn23)[C@H](O)[C@@H]1O)OCc1ccc(Cl)c(C#N)c1 [Example 108, [(2R,3S,4R,5R)-5-(4-aminopyrrolo[2,1-f][1,2,4]triazin-7-yl)-5-cyano-3,4-dihydroxy-tetrahydrofuran-2-yl]methyl [(2R)-2-[(4-chloro-3-cyano-phenyl)methoxy]-3-octadecoxy-propyl] hydrogen phosphate]	0.713 µM	220 nM	83 nM			
CCCCCCCCCCCCCCCCCCOC[C@H](COP(=O)(O)OC[C@H]1O[C@@](C#N)(c2ccc3c(N)ncnn23)[C@H](O)[C@@H]1O)OCc1ccc(C(F)(F)F)nc1 [Example 123, [(2R,3S,4R,5R)-5-(4-Aminopyrrolo[2,1-f][1,2,4]triazin-7-yl)-5-cyano-3,4-dihydroxy-tetrahydrofuran-2-yl]methyl [(2R)-3-octadecoxy-2-[[6-(trifluoromethyl)-3-pyridyl]methoxy]propyl] hydrogen phosphate]	1.04 µM	340 nM	55 nM			
CCCCCCCCCCCCCCCCCCOC[C@H](COP(=O)(O)OC[C@H]1O[C@@](C#N)(c2ccc3c(N)ncnn23)[C@H](O)[C@@H]1O)OCc1ccc2ccccc2n1 [Example 92, ((2R,3S,4R,5R)-5-(4-aminopyrrolo[2,1-f][1,2,4]triazin-7-yl)-5-cyano-3,4-dihydroxytetrahydrofuran-2-yl)methyl ((R)-3-(octadecyloxy)-2-(quinolin-2-ylmethoxy)propyl) hydrogen phosphate]	1.77 µM	120 nM	38 nM			
CCCCCCCCCCCCCCCCCCOC[C@H](COP(=O)(O)OC[C@H]1O[C@@](C#N)(c2ccc3c(N)ncnn23)[C@H](O)[C@@H]1O)OCc1cccc(C#N)n1 [Example 107, [(2R,3S,4R,5R)-5-(4-Aminopyrrolo[2,1-f][1,2,4]triazin-7-yl)-5-cyano-3,4-dihydroxy-tetrahydrofuran-2-yl]methyl [(2R)-2-[(6-cyano-2-pyridyl)methoxy]-3-octadecoxy-propyl] hydrogen phosphate]	0.885 µM	370 nM	80 nM			
CCCCCCCCCCCCCCCCCOCC[C@H](COP(=O)(O)OC[C@H]1O[C@@](C#N)(c2ccc3c(N)ncnn23)[C@H](O)[C@@H]1O)OCc1ccc(C#N)cc1 [Example 111, [(2R,3S,4R,5R)-5-(4-Aminopyrrolo[2,1-f][1,2,4]triazin-7-yl)-5-cyano-3,4-dihydroxy-tetrahydrofuran-2-yl]methyl [(2R)-2-[(4-cyanophenyl)methoxy]-4-heptadecoxy-butyl] hydrogen phosphate]	18.9 µM	3500 nM	499 nM			
CCCCCCCCCCCCCCCCCCOC[C@H](COP(=O)(O)OC[C@H]1O[C@@](C#N)(c2ccc3c(N)ncnn23)[C@H](O)[C@@H]1O)n1cc(C#N)nn1 [Example 81, ((2R,3S,4R,5R)-5-(4-aminopyrrolo[2,1-f][1,2,4]triazin-7-yl)-5-cyano-3,4-dihydroxytetrahydrofuran-2-yl)methyl ((R)-2-(4-cyano-1H-1,2,3-triazol-1-yl)-3-(octadecyloxy)propyl) hydrogen phosphate]	31.1 µM	1900 nM	68 nM			
CCCCCCCCCCCCCCCCCOC[C@H](COP(=O)(O)OC[C@H]1O[C@@](C#N)(c2ccc3c(N)ncnn23)[C@H](O)[C@@H]1O)OCc1cc(F)cc(C#N)c1 [Example 35, ((2R,3S,4R,5R)-5-(4-aminopyrrolo[2,1-f][1,2,4]triazin-7-yl)-5-cyano-3,4-dihydroxytetrahydrofuran-2-yl)methyl ((R)-2-((3-cyano-5-fluorobenzyl)oxy)-3-(heptadecyloxy)propyl) hydrogen phosphate]		112 nM		0.425 µM		40 nM
